The test system of one test is SARS-CoV-2. Description: Antiviral activity against SARS-CoV-2 hCoV-19/Czech Republic/NRL_6632_2/2020 infected in African green monkey Vero E6 cells assessed as reduction in viral growth […] by two-fold serial dilution assay. As to conditions: Severe acute respiratory syndrome coronavirus 2. In kind it is functional, organism-based.
In test [1] the target is mRNA cap guanine-N(7) methyltransferase (Homo sapiens) (UniProt O43148). The test can be described thus: Inhibition of human RNMT at 25 uM.
Sequence of mRNA cap guanine-N(7) methyltransferase (Homo sapiens) (O43148 whole entry): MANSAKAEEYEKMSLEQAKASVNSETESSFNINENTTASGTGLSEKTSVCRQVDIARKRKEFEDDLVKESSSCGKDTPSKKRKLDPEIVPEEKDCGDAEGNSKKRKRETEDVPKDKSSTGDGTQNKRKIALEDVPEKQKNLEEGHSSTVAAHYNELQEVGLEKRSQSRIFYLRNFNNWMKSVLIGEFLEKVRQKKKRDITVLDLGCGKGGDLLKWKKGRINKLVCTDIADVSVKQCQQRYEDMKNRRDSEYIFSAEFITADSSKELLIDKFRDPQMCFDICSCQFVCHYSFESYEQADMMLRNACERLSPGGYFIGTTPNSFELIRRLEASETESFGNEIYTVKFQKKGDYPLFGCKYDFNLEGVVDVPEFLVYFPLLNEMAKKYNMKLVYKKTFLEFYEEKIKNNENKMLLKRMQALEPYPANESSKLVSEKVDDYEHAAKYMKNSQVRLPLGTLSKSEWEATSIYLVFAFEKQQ
Test [2] concerns the target Replicase polyprotein 1ab (Severe acute respiratory syndrome coronavirus 2, UniProt P0DTD1). Description: Inhibition of N-terminal 8His and SUMO tagged SARS-CoV-2 nsp14 N7-methyltransferase activity extracted from Escherichia coli using S-Adenosyl-L-methionine as substrate incubated for 30 mins by mass spectrometry.

Active and inactive are the calls of the source. The rule behind the calls is not given here.

Consider `Cc1cc(=O)[nH]c2cc(N(C)C(=O)[C@H]3O[C@@H](n4cc(C#Cc5cncnc5)c5c(N)ncnc54)[C@H](O)[C@@H]3O)ccc12`, for which the result in the test with SARS-CoV-2 was inactive. For the same compound, the inhibition result in test [1] was “inactive”.

As to `NC(=O)c1ccc(NC(=O)[C@H]2O[C@@H](n3cnc4c(N)ncnc43)[C@H](O)[C@@H]2O)cc1`, the IC50 entry in test [2] was “Not_active”.

Regarding `Nc1ncnc2c1ncn2[C@@H]1O[C@H](C(=O)Nc2ccc(-c3cn[nH]c3)cc2)[C@@H](O)[C@H]1O`, the IC50 entry in test [2] is on record as “Not_active”.

As for `Cc1noc(C)c1-c1ccc(NC(=O)[C@H]2O[C@@H](n3cnc4c(N)ncnc43)[C@H](O)[C@@H]2O)cc1`, in test [2], the IC50 entry is “Not_active”.

For `Cc1cc(=O)[nH]c2cc(NC(=O)[C@H]3O[C@@H](n4cc(C#Cc5cncnc5)c5c(N)ncnc54)[C@H](O)[C@@H]3O)ccc12`, the outcome in the test with SARS-CoV-2 was inactive. The inhibition result in test [1] is “inactive”.

Consider `Nc1ncnc2c1ncn2[C@@H]1O[C@H](CNC(=O)c2ccc3c(c2)OCCO3)[C@@H](O)[C@H]1O`, for which the IC50 result in test [2] is “Not_active”.

For the compound `Nc1ncnc2c1ncn2[C@@H]1O[C@H](C(=O)Nc2ccc(-c3ccoc3)cc2)[C@@H](O)[C@H]1O`, the IC50 entry in test [2] is on record as “Not_active”.

For the compound `Cc1ccc(NC(=O)[C@H]2O[C@@H](n3cnc4c(N)ncnc43)[C@H](O)[C@@H]2O)cc1O`, the IC50 entry in test [2] is reported as “Not_active”.

`COC(=O)c1ccc(C(=O)NC[C@H]2O[C@@H](n3cnc4c(N)ncnc43)[C@H](O)[C@@H]2O)cc1`: the IC50 entry in test [2] is “Not_active”.

On to `COc1cccc(NC(=O)[C@H]2O[C@@H](n3cnc4c(N)ncnc43)[C@H](O)[C@@H]2O)c1`, for which, in test [2], the IC50 result is given as “Not_active”.

Regarding `Cc1cc(=O)oc2cc(NC(=O)[C@H]3O[C@@H](n4cnc5c(N)ncnc54)[C@H](O)[C@@H]3O)ccc12`, in the test with SARS-CoV-2, the result was inactive. The inhibition result in test [1] was “inactive”.

With `Cc1cc(=O)[nH]c2cc(NC(=O)[C@H]3O[C@@H](n4cnc5c(N)ncnc54)[C@H](O)[C@@H]3O)ccc12`, the result in the test on SARS-CoV-2 was inactive. The inhibition result in test [1] was “inactive”.

For `Cc1cc(=O)oc2cc(NC(=O)[C@H]3O[C@@H](n4cc(C#Cc5cncnc5)c5c(N)ncnc54)[C@H](O)[C@@H]3O)ccc12`, the result in the test on SARS-CoV-2 was inactive. For the same compound, in test [1], the inhibition entry is “inactive”.

Turning to `Nc1ncnc2c1ncn2[C@@H]1O[C@H](C(=O)Nc2ccc(-c3ccsc3)cc2)[C@@H](O)[C@H]1O`, the IC50 entry in test [2] is “Not_active”.

In the case of `COC(=O)c1cc(NC(=O)[C@H]2O[C@@H](n3cnc4c(N)ncnc43)[C@H](O)[C@@H]2O)ccc1F`, the IC50 result in test [2] was “Not_active”.
